# In US8614236B2 (University of Washington, priority 2006, dated 2013):
# Columns and labels:
# humans = conditions: 250 mg tid; Balanos et al. abstract 2006; cited from earlier work
# PASMCs = assay: Changes in membrane potential (Em) in PASMCs, DiBAC4(3) fluorescence; format: cell-based, rat; conditions: 100 μM
# Experimental: The method for obtaining single PASMCs has been described previously in Shimoda L. A., et al., Am J Physiol 274: 842-853 (1998), which is hereby incorporated by reference in its entirety. Intrapulmonary arteries (200-600 μm o.d.) were isolated from male Wistar rats (250-350 g) and cleaned of connective tissue. After the lumen was gently rubbed with a cotton swab to remove the endothelial cells, the arteries were allowed to recover for 30 minutes in cold (4° C.) HBSS containing (in mM): 130 NaCl, 5 KCl, 1.2 MgCl2, 1.5 CaCl2, 10 N-[2-hydroxyethyl]piperazine-N′-[2-ethanesulfonic acid] (HEPES) and 10 glucose, with pH adjusted to 7.2 with 5 M NaOH, followed by 20 minutes in reduced-Ca^2+ (20 μM CaCl2) HBSS at room temperature. The tissue was enzymatically digested in reduced-Ca^2+ HBSS containing collagenase (type I; 1750 U/ml), papain (9.5 U/ml), bovine serum albumin (2 mg/ml) and dithiothreitol (1 mM) at 37° C. for 20 minutes. Following digestion, single smooth muscle cells were dispersed by gentle trituration with a wide-bore transfer pipette in Ca^2+-free HBSS and the cell suspension was placed on 25 mm glass cover slips. PASMCs were transiently cultured in Ham's-F-12 media supplemented with 0.5% fetal bovine serum and 1% penicillin/streptomycin for 24-48 hrs. before study.
# Changes in membrane potential were measured using the fluorescence dye, DiBAC4(3), which was excited at 490 nm and detected at 510 nm. Cells were loaded by continuous perfusion with Kreb's solution containing 500 nM DiBAC4(3) and were perfused for at least 15 minutes before beginning measurements to insure stable uptake of dye. Baseline DiBAC4(3) fluorescence was monitored for 5 minutes with control Kreb's, followed by 10 minutes with Kreb's in the presence or absence of AZ (100 μM). At the end of this period, cells were challenged with KCl (60 mM) or endothelin-1 (ET-1) (10^−8 M). Since DiBAC4(3) is a single wavelength dye, any change in the concentration of the dye in the perfusion medium (i.e., differing concentrations between perfusion reservoirs) could result in a change in fluorescence that is not due to a change in membrane potential. To minimize the possibility of this type of error, all experiments were performed using inflow from a single reservoir into which AZ, KCl or ET-1 were dissolved directly.
# AZ has recently been proposed to alter the activation of Ca^2+-activated K^+ channels, causing hyperpolarization. See Pickkers P., et al., Br J Pharmacol 132: 443-450 (2001); Tricarico D., et al., Ann Neurol 48: 304-312 (2000); and Tricarico D., et al., Faseb J 18: 760-761 (2004), which are hereby incorporated by reference in their entirety. Since depolarization is believed to contribute to the hypoxia-induced increase in [Ca^2+]i, AZ-induced hyperpolarization could prevent activation of voltage-gated Ca^2+ channels and an increase in [Ca^2+]i in response to hypoxia. In order to test this possibility, the Em-sensitive fluorescent dye, DiBAC4(3) was used. […] Baseline fluorescence was relatively stable over time, decreasing by 4.11±0.4% over 10 minutes (n=90 cells).
structure (smiles),measurement,setting,value
"CC(=O)Nc1nnc(S(N)(=O)=O)s1 [AZ, acetazolamide]",reduction of HPV in humans,humans,50%
same,change in basal DiBAC4(3) fluorescence (basal Em),PASMCs,−2.86±4.5%
same,effect on basal Em,PASMCs,no significant effect
same,increase in DiBAC4(3) fluorescence induced by ET-1 in presence of compound,PASMCs; ET-1,66.0±10.4%
same,increase in DiBAC4(3) fluorescence induced by KCl in presence of compound,PASMCs; KCl,53.13±14.8%
